{
  "source": "patent US20100189813A1",
  "about": "“Cidal formulations and methods of use” (priority 2006, published 2010)",
  "key": {"Anopheles mosquitoes": {"test_system": "Anopheles mosquitoes", "assay": "Anopheles mosquito larvae survivorship on exposure to copper", "assay_type": "in vivo", "description": "A solution in water of copper sulphate pentahydrate at 5 weight percent was used to treat Anopheles mosquitoes. The mosquitoes were wild caught and they were not separated by larval stage so there is some variability in the response to the test. The data is based upon 1000 larvae per treatment. Amounts of copper were used at 0.37 ppm, 0.88 ppm, 1.47 ppm, and 8.4 ppm. […] The Y-axis is the percentage of survivorship and the X-axis is the number of days of exposure.\nThe tests were repeated wherein a copper compound in inert carrier was treated with a detergent as an additive to determine if the additive increased the efficacy of the copper. […] The first control is FIG. 2, Stage 1 larvae, the duplicate control, Stage 1 larvae, is FIG. 3 wherein, in both Figures, the Y-axis is the percentage of survivorship and the X-axis is the number of days of exposure.\nKathon was added at 0.02 weight percent. […] The Y-axis is the percentage of survivorship and the X-axis is the number of days of exposure.\nThe copper was used at the 0.25 ppm level. […] The Y-axis is the percentage of survivorship and the X-axis is the number of days of exposure."}, "aerial bacteria": {"test_system": "aerial bacteria", "assay": "Agar growth media plates left open to the atmosphere for 6 hours (disinfectant efficacy), bacteria", "assay_type": "cell-based", "settings": "copper sulphate at 5%; plates open 6 hours", "method": "(§1) 1. The Unformulated composition containing 5 weight percent of copper sulphate in an inert carrier was added directly to growth media, namely, Agar, in order to evaluate it's efficacy as a disinfectant. 2. The same solution was added to bacteria and its growth was monitored by optical density readings as a function of time. 3. The same solution alone or in combination with a detergent was added to bacteria or fungi and incubated for 10 minutes or 60 minutes and the incubation mix was plated on to agar growth media in order to estimate survival.\n(§2) a. The Unformulated composition at different concentrations was added to live bacterial agar media and the agar plates were exposed to the atmosphere by keeping the Petri plates open to the atmosphere for 6 hours. By doing this it was expected to allow aerial bacteria to grow in the plates.\n(§3) Control plates without the Unformulated composition contained confluent colonies of bacteria (infinite) and fungi."}, "fungi": {"test_system": "fungi", "assay": "Agar growth media plates left open to the atmosphere for 6 hours (disinfectant efficacy), fungi", "assay_type": "cell-based", "settings": "copper sulphate at 5%; plates open 6 hours", "method": "as §1, §2, §3"}, "E. Coli bacteria": {"test_system": "E. Coli bacteria", "assay": "Incubation for 10 or 60 minutes, then plating on agar to estimate survival, bacteria", "assay_type": "cell-based", "settings": "detergent alone", "method": "Three different types of experiments were conducted in order to assess the efficacy of an inventive solution on E. Coli bacteria and fungi.\nas §1\nc. Bacteria with the Unformulated composition was incubated for 10 minutes or 60 minutes before plating them. […] Because of the closeness of the data points, the inventors herein would point out that the top line is the control, the next set of lines lower are constituted of 0.1, 0.2, 0.3, 0.4, 0.5 of ET and 1 ml Matrix, while the bottom set of lines are constituted of 2 ml Matrix, 3 ml Matrix, 3 ml Matrix, 4 ml Matrix, and 5 ml of Matrix.\n4. The effect of adding detergents, that is, sodium dodecyl sulfate to the Unformulated composition.\nThe detergent alone allowed growth up to a concentration of 0.2%. […]"}},
  "data": [
    {"smiles": "O.O.O.O.O.O=S(=O)([O-])[O-].[Cu+2]", "note": "[copper sulphate pentahydrate]", "values": [
      {"measurement": "survivorship", "setting": "Anopheles mosquitoes; 0.37 ppm copper, wild caught larvae not separated by larval stage, 1000 larvae per treatment", "value": "~100", "unit": "%"},
      {"measurement": "no-effect dose", "setting": "Anopheles mosquitoes; copper, first part of the experiment, no detergent", "value": 0.37, "unit": "ppm"},
      {"measurement": "death of larvae", "setting": "Anopheles mosquitoes; more than 0.8 ppm copper (0.88, 1.47, 8.4 ppm tested), by day 3, wild caught larvae", "value": "died by day 3"},
      {"measurement": "bacterial growth on plates", "setting": "aerial bacteria", "value": "allowed bacterial growth"},
      {"measurement": "fungal growth on plates", "setting": "fungi", "value": "allowed no fungal growth"}
    ]},
    {"smiles": "CCCCCCCCCCCCOS(=O)(=O)[O-].[Na+]", "note": "[sodium dodecyl sulfate]", "values": [
      {"measurement": "concentration at which bacterial growth was still allowed", "setting": "E. Coli bacteria", "value": "≤ 0.2", "unit": "%"}
    ]}
  ]
}
